# Test results: ChEMBL document CHEMBL1134106, “Novel heteroaryl replacements of aromatic 3-tetrafluoroethoxy substituents in trifluoro-3-(tertiaryamino)-2-propanols as potent inhibitors of cholesteryl ester transfer protein” (Bioorg Med Chem Lett, 2001)
# Tests used:
# [1] = target: T1, Cholesteryl ester transfer protein (Homo sapiens, UniProt P11597); assay: Inhibition of recombinant human CETP mediated transfer of [3H]cholesteryl ester from HDL to LDL
# T1 sequence (P11597 whole entry): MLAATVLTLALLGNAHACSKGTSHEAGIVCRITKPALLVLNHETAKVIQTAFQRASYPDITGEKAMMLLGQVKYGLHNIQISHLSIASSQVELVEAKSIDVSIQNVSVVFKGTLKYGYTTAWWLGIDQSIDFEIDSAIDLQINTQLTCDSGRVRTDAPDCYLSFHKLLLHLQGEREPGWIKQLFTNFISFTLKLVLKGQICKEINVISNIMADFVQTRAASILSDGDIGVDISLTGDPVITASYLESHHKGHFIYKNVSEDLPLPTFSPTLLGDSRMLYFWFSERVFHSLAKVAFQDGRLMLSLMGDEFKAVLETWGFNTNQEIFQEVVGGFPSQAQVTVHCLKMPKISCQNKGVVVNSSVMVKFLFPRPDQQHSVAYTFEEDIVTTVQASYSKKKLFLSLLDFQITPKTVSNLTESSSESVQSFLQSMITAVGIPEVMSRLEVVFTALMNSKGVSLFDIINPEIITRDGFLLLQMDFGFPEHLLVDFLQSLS
# [2] = target: T1, Cholesteryl ester transfer protein; assay: In vitro human CETP inhibitory activity assessed by measuring the rate of [3H]cholesteryl ester ([3H]CE) from HDL donor particles to LDL acceptor particles using human serum by serum transfer assay
SMILES,IC50 [1] [µM],IC50 [2] [µM]
OC(CN(Cc1ccc(F)c(-c2ccco2)c1)c1cccc(Oc2ccccc2)c1)C(F)(F)F (configuration not stated),0.72,
OC(CN(Cc1cccc(-c2cccnc2)c1)c1cccc(Oc2ccccc2)c1)C(F)(F)F (configuration not stated),14.3,

# Further molecules by falling IC50 [1], results first:
IC50 [1] [µM],IC50 [2] [µM],SMILES
4.42,47,OC(CN(Cc1cccc(-c2ccccc2)c1)c1cccc(Oc2ccccc2)c1)C(F)(F)F (configuration not stated)
3.96,,Cc1ccc(CN(CC(O)C(F)(F)F)c2cccc(Oc3ccccc3)c2)cc1-c1ccco1 (configuration not stated)
1.12,83,OC(CN(Cc1cccc(-c2cccs2)c1)c1cccc(Oc2ccccc2)c1)C(F)(F)F (configuration not stated)
